System: renal progenitor cells
Test: In situ hybridization for lhx1a expression in 10-somite embryos (renal progenitor cell expansion)
Assay type: in vivo
Conditions: for responders at 0.8 µM / responders at 1.5 µM / responders at 3 µM / EC50 / responders at 0.2 µM / responders at 0.4 µM: Danio rerio; for responders at 0.8 µM: 800 nM, read-out: Expansion of Cells (including repeats* and recounts**) 800 nM; for responders at 1.5 µM: read-out: Expansion of Cells (including repeats* and recounts**) 1.5 μM; for responders at 3 µM: read-out: Expansion of Cells (including repeats* and recounts**) 3 μM; for EC50: first pass EC50 from percent expansion (Excel trendline), average where several experiments; for responders at 0.2 µM: 200 nM, read-out: Expansion of Cells (including repeats* and recounts**) 200 nM; for responders at 0.4 µM: 400 nM, read-out: Expansion of Cells (including repeats* and recounts**) 400 nM
Description: PTBA was synthesized as described below. Hydroxyurea and aphidicolin were obtained from Sigma-Aldrich.
In situ hybridization and immunocytochemistry: In situ hybridization was performed as previously described with some modifications.142 Hybridization temperature was 65° C. Embryos were blocked in 2% blocking reagent (Roche) with 5% sheep serum in MAB (100 mM maleic acid and 150 mM NaCl [pH 7.5]). Whole-mount immunocytochemistry with 1:25 mouse anti-α6F antibody (Developmental Studies Hybridoma Bank) and 1:100 Cy3 secondary antibody (Jackson ImmunoResearch) was performed as described previously.108 Embryos were embedded in JB-4 for sectioning per the manufacturer's instructions (Polysciences), sectioned at 5 μm, and mounted with Cytoseal 60 (Richard-Allan Scientific).
The remaining PTBA analogs were synthesized.
In situ hybridization for lhx1a was performed as described above. […] Compounds were classified as effective, partially-effective or ineffective based on comparison to the effects of PTBA at a given concentration.
Testing of the compounds is on-going, but for those tested, Table 6 provides first pass EC50s based upon colormetric in situ hybridizations for the Lhx1a mRNA expression levels. After the procedure is run, in situ hybridization is done for the lhx1 mRNA expression and the number of embryos that show an expanded kidney field is manually counted to establish the percent of embryos showing expansion. Then the EC50 is determined by plotting the percent expansion in Excel, graphing the results and using the trendline function to determine the 50 percent point.

[1] = percent of embryos with expanded kidney field
[2] = percent of embryos with expanded kidney field, 1.5 μM
[3] = percent of embryos with expanded kidney field, 3 μM

SMILES	responders at 0.8 µM [1] [%]	responders at 1.5 µM [2] [%]	responders at 3 µM [3] [%]	EC50 [µM]	responders at 0.2 µM [1] [%]	responders at 0.4 µM [1] [%]	Expansion of Cells (including repeats* and recounts**) 1.5 μM [2]	Expansion of Cells (including repeats* and recounts**) 3 μM [3]	lhx1a expansion, percent of treated embryos (3 μM from 2 hpf, 10-somite embryos)
COC(=O)CCCCCSc1ccccc1 [UPHD-00047, methyl 6-(phenyl-sulfanyl)hexanoate]	100	100	100	0.4					
Nc1ccccc1NC(=O)CCCCCSc1ccccn1 [UPHD-00073, N-(2-aminophenyl)-6-(pyridin-2-ylsulfanyl)hexanamide]	0	20	30	> 3	5	10			
COC(=O)CCCCCSc1ccccn1 [UPHD-00065, methyl 6-(pyridin-2-ylsulfanyl)hexanoate]	6	11	29	> 3	0	20			
Nc1ccccc1NC(=O)CCCCCSc1ccc(F)cc1 [UPHD-00053, N-(2-aminophenyl)-6-[(4-fluoro-phenyl)sulfanyl]hexanamide]	85	100	100	0.79	20	5			
O=C(CCCCCS(=O)(=O)c1ccc2ccccc2c1)NO [UPHD-00069, N-hydroxy-6-(naphthalene-2-sulfonyl)hexanamide]	0	0	0	> 3	0	0			
O=C(NO)c1ccc(CSc2ccccc2)cc1 [UPHD-00052, N-hydroxy-4-[(phenyl-sulfanyl)methyl]benzamide]	0	10		> 3	0	0			
COC(=O)CCCCCS(=O)(=O)c1ccc2ccccc2c1 [UPHD-00063, methyl 6-(naphthalen-2-ylsulfonyl)hexanoate]	0	0	6	> 3	10	5			
O=C(CCCCCSc1nc2ccccc2s1)NO [UPHD-00070, 6-(1,3-benzothiazol-2-ylsulfanyl)-N-hydroxyhexanamide]	0	0	0	> 3	0	0			
COC(=O)CCCCCCSc1ccccc1 [UPHD-00040, methyl 7-(phenylsulfanyl)heptanoate]	6	15	45	> 3					
Nc1ccccc1NC(=O)CCCCCSc1ncccn1 [UPHD-00072, N-(2-aminophenyl)-6-(pyrimidin-2-ylsulfanyl)hexanamide]	5	5	5	> 3	0	0			
Nc1ccccc1NC(=O)CCCCSc1ccccc1 [UPHD-00038, N-(2-aminophenyl)-5-(phenylsulfanyl)pentanamide]	58	81	85						
Nc1ccccc1NC(=O)CCCCCSc1nc2ccccc2s1 [UPHD-00071, N-(2-aminophenyl)-6-(1,3-benzothiazol-2-ylsulfanyl)hexanamide]	74	26	70		12	42			
COC(=O)CCCCCSc1ccc(OC)cc1 [UPHD-00090, methyl 6-[(4-methoxy-phenyl)sulfanyl]hexanoate]	25	26	65	2.34	0	12			
O=C(CCCCCSc1ccc(F)cc1)Nc1ccccc1O [UPHD-00077, 6-[(4-fluoro-phenyl)sulfanyl]-N-(2-hydroxyphenyl)hexanamide]	100			0.23	40	100	ND (All Dead)	ND (All Dead)	
Nc1ccccc1NC(=O)CCCCCSc1ccc2ccccc2c1 [UPHD-00060, N-(2-aminophenyl)-6-(naphthalen-2-ylsulfanyl)hexanamide]	10	20	5	> 3	5	0			
Nc1ccccc1NC(=O)CCCCSc1ccc(F)cc1 [UPHD-00037, N-(2-aminophenyl)-5-[(4-fluoro-phenyl)sulfanyl]pentanamide]				2.59	10				
O=C(CCCCCCSc1ccccc1)NO [UPHD-00041, N-hydroxy-7-(phenyl-sulfanyl)heptanamide]	0	0	0	> 3					
NC(CCSc1ccccc1)C(=O)O (stereo not shown) [Compound 2-amino-PTBA, 2-amino-PTBA, reference compound]									no expansion
COC(=O)CCCCCSc1ccc2ccccc2c1 [UPHD-00057, methyl 6-(naphthalen-2-ylsulfanyl)hexanoate]	11	18	29	> 3	19	19			
COC(=O)CCCCCSc1nc2ccccc2s1 [UPHD-00062]	0	0	0	> 3	11	12			
COC(=O)CCCCCSc1ccc(F)cc1 [UPHD-00048, methyl 6-[(4-fluoro-phenyl)sulfanyl]hexanoate]	100	100	100	0.28					
COC(=O)c1ccc(CSc2ccc(F)cc2)cc1 [UPHD-00046, methyl 4-{[(4-fluoro-phenyl)sul-fanyl]methyl}benzoate]	17	30	20	> 3					
O=C(NO)c1ccc(CCSc2ccc(F)cc2)cc1 [UPHD-00067, 4-{2[(4-fluoro-phenyl)sulfanyl]ethyl}-N-hydroxybenzamide]			20	0.8	17				
Nc1ccccc1NC(=O)CCCCCCSc1ccccc1 [UPHD-00044, N-(2-aminophenyl)-7-(phenylsulfanyl)heptanamide]				1.49					
O=C(CCCCCSc1ccc(F)cc1)NO [UPHD-00051, 6-[(4-fluoro-phenyl)sulfanyl]-N-hydroxyhexanamide]			86.7	1.9					
O=C(CCCCSc1ccc(F)cc1)NO [UPHD-00034, 5-[(4-fluoro-phenyl)sulfanyl]-N-hydroxypentanamide]						10			
COC(=O)CCCCCSc1ncccn1 [UPHD-00058, methyl 6-(pyrimidin-2-ylsulfanyl)hexanoate]	20	28	6	> 3	17	33			

From patent US10160705B2, “Class of HDAC inhibitors expands the renal progenitor cells population and improves the rate of recovery from acute kidney injury” (University of Pittsburgh—Of the Commonwealth System of …, priority 2011, dated 2018)
